The values below come from patent US10287267B2, “Isoquinolin-3-yl carboxamides and preparation and use thereof” (Samumed, LLC, priority 2016, dated 2019).

One experiment concerns IL-6. The experiment in a line: IL-6 inhibition in LPS-stimulated human peripheral blood mononuclear cells (HTRF).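 For all read-outs here: IL-6 detected by HTRF with an XL665- and Cryptate-labelled anti-IL-6 antibody pair, samples run in duplicate, EC50 obtained from a four-parameter Levenberg-Marquardt curve fit.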 Format: cell-based. The conditions noted are these: Homo sapiens, PBMC; for EC50: Table 9, huPBMCs, LPS 50 ng/mL, 22 hours, dose-response starting from 10 μM. Background: In TR-FRET formats the signal depends on donor and acceptor labels being close together.
A further experiment deals with recombinant GSK3β kinase (Homo sapiens (Human), UniProt P49841). The experiment in a line: GSK3β kinase assay (Ser/Thr 09 peptide Z-lyte FRET).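 Note: kinase activity read as coumarin to fluorescein emission ratio, 11-point threefold dilutions from 10 µM to 0.0003 µM in duplicate, unphosphorylated and phosphorylated peptide as 0% and 100% controls.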 The experiment is classed as biochemical. The note with it: 46 μM ATP, 1 h room temperature.
Experiment [1] deals with SW480 colon carcinoma cells. In words: Cell viability assay (CellTiter-Glo). Format: cell-based, human. The note with it: Homo sapiens; for EC50: 96 h, SW480 cells, CellTiter-Glo, four days incubation; for inhibition at 10 µM: SW480, read-out: percent inhibition at 10 μM. In general terms: In ATP-based viability assays light output follows the ATP content of the culture.
Experiment [2] has as its target recombinant DYRK1A kinase (Homo sapiens (Human), UniProt Q13627). In words: DYRK1A kinase assay (Ser/Thr 18 peptide Z-lyte FRET).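 Note: Read-out is the coumarin to fluorescein emission ratio, referenced to unphosphorylated (0%) and phosphorylated (100%) Ser/Thr 18 peptide controls, values from dose-response curves by non-linear regression.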 Format: biochemical. The conditions noted are these: 30 μM ATP, 1 h room temperature.
The subject of experiment [3] is Wnt pathway (Sp5-Luc reporter, TCF/LEF binding sites) in SW480 colon carcinoma cells. The experiment in a line: Screening assay for Wnt activity: Sp5-Luc reporter gene assay.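 For all read-outs here: firefly luciferase luminescence read in stably transduced SW480 cells carrying the Sp5 promoter reporter with eight TCF/LEF sites, compounds given in 0.1% DMSO final.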 The experiment is classed as cell-based, human. The note with it: Homo sapiens; for EC50: Sp5-Luc reporter, SW480 cells, 36 to 48 hours; for inhibition at 10 µM: SW480, read-out: percent inhibition at 10 μM. A general note: A reporter such as luciferase makes a cellular process visible.
Protocol: The screening assay for Wnt activity is described as follows.
Following incubation, 15 μl of BriteLite Plus luminescence reagent (Perkin Elmer) was added to each well of the 384-well assay plates. The plates were placed on an orbital shaker for 2 min and then luminescence was quantified using the Envision (Perkin Elmer) plate reader.

Experiment [4] deals with α-smooth muscle actin (αSMA) positive LL29 cells. The experiment in a line: Inhibition of fibrotic process: αSMA in TGF-β1 treated primary human fibroblasts from IPF patients.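 For all read-outs here: controls were TGF-β1 stimulated wells with DMSO vehicle (positive) and cells given DMSO alone (negative), cultured in F12 medium with 1% fetal bovine serum.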 The experiment is classed as cell-based. The note with it: Homo sapiens, Fibroblast; for EC50: 96 h, Table 8, LL29 fibroblasts from IPF patients, TGF-β1 20 ng/mL, 4 days, dose-response 10 μM to 0.94 nM; for inhibition at 10 µM: read-out: percent value in parentheses beside EC50 >10 μM.

In experiment [5] the test system is Tau phosphorylation at Ser396 (pSer396). The experiment in a line: Tau phosphorylation assay (pSer396 ELISA / western blot) in SH-SY5Y cells.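 Note: EC50 for reduction of Tau pSer396 in lysed cells, measured by colorimetric ELISA or chemiluminescent western blot, both using the same pSer396 antibody.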 Format: cell-based, human. The note with it: Homo sapiens; SH-SY5Y cells, overnight (16-18 h) exposure; read-out: pSer396 Tau EC50.

Structures are written as SMILES. Some results are limits rather than exact numbers.

Chain of recombinant GSK3β kinase (P49841 whole entry): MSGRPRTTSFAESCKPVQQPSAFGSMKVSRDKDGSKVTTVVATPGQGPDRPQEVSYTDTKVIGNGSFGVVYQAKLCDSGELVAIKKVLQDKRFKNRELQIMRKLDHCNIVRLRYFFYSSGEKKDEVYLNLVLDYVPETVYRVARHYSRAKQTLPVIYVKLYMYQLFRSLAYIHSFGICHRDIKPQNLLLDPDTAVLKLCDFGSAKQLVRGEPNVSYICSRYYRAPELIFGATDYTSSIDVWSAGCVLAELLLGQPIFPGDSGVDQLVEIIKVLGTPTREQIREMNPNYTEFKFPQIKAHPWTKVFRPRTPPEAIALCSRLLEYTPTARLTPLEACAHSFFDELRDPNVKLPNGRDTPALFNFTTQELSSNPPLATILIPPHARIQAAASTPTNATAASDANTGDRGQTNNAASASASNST
Protocol for IL-6: After 22 hour incubation, a mixture of anti-IL6 XL665 and anti-IL-6 Cryptate diluted in reconstitution buffer (Catalog #62IL6PEC, Cisbio Inc., Bedford, Mass.) was added to each well. […] All samples were processed in duplicate. […] EC50 was determined using software generated by Dotmatics Limited (Windhill Bishops Stortford Herts, UK) using the Levenberg-Marquardt 4 parameter fitting procedure with finite different gradients.

In general, EC50 refers to the concentration that produces a half-maximal response. In the case of `Cn1cncc1-c1ccc2cnc(NC(=O)C3(F)CC3)cc2c1` [Compound 521, 1-Fluoro-N-(6-(1-methyl-1H-imidazol-5-yl)isoquinolin-3-yl)cyclopropane-1-carboxamide], the EC50 in the experiment on IL-6 was found to be 3250 nM; at recombinant GSK3β kinase, 234 nM; in experiment [1] it was 3630 nM; in experiment [2] it was 1.6 nM; in experiment [3] it was 1800 nM; in experiment [4], 1990 nM. The EC50 in experiment [5] was found to be 1100 nM.

As to `CN1CC2(CC(C(=O)Nc3cc4cc(-c5cncn5C)ccc4cn3)C2)C1` [Compound 523, 2-Methyl-N-(6-(1-methyl-1H-imidazol-5-yl)isoquinolin-3-yl)-2-azaspiro[3.3] heptane-6-carboxamide], the EC50 was 201 nM in the experiment on IL-6; 42 nM at recombinant GSK3β kinase; 447 nM in experiment [1]; 2.9 nM in experiment [2]; 683 nM in experiment [3]; more than 10000 nM in experiment [4]. Moreover, the EC50 in experiment [5] turned out to be 2200 nM. Moreover, the inhibition at 10 µM in experiment [4] was 32.6%.

For `Cn1cncc1-c1ccc2cnc(NC(=O)C3(F)CCCCC3)cc2c1` [Compound 527, 1-Fluoro-N-(6-(1-methyl-1H-imidazol-5-yl)isoquinolin-3-yl)cyclohexane-1-carboxamide], the concentration giving a half-maximal response (EC50) with IL-6 is 9980 nM; on recombinant GSK3β kinase, 415 nM; in experiment [1], more than 10000 nM; in experiment [2], 9.8 nM; in experiment [3] it was more than 10000 nM; in experiment [4] it was more than 10000 nM. Besides, in experiment [5], the EC50 is 2400 nM. Further, the results for the inhibition at 10 µM in experiment [1], in experiment [3] and in experiment [4] were 43.6%, 23.5% and 37.3%, respectively.

As to `CO[C@H]1CC[C@H](C(=O)Nc2cc3cc(-c4cncn4C)ccc3cn2)CC1` [Compound 528, trans-4-Methoxy-N-(6-(1-methyl-1H-imidazol-5-yl)isoquinolin-3-yl) cyclohexane-1-carboxamide], the concentration for a half-maximal effect (EC50) in the experiment on IL-6 turned out to be 1780 nM; on recombinant GSK3β kinase, 96 nM; in experiment [1], 1420 nM; in experiment [2], 0.8 nM; in experiment [3] it was 1150 nM; in experiment [4], 103 nM. The EC50 in experiment [5] came out at 323 nM.

As for `Cn1cncc1-c1ccc2cnc(NC(=O)[C@H]3CC[C@H](CO)CC3)cc2c1` [Compound 531, trans-4-(Hydroxymethyl)-N-(6-(1-methyl-1H-imidazol-5-yl)isoquinolin-3-yl)cyclohexane-1-carboxamide], the EC50 in the experiment on IL-6 worked out at 698 nM; on recombinant GSK3β kinase it was 50 nM; in experiment [1], 989 nM; in experiment [2] it was 0.9 nM; in experiment [3] it was 1060 nM; in experiment [4], 153 nM. The EC50 in experiment [5] was 146 nM.

As for `Cn1cncc1-c1ccc2cnc(NC(=O)C3CNC3)cc2c1` [Compound 535, N-(6-(1-Methyl-1H-imidazol-5-yl)isoquinolin-3-yl)azetidine-3-carboxamide], the inhibition at 10 µM in the experiment on IL-6 (read-out: percent value in parentheses beside EC50 >10 μM) is 3.1%; in experiment [1], 42%; in experiment [3] it was 44.9%; in experiment [4], 17.7%. The EC50 in the experiment on IL-6 was more than 10000 nM; at recombinant GSK3β kinase, 87 nM; in experiment [1] it was more than 10000 nM; in experiment [2], 4.5 nM; in experiment [3], more than 10000 nM; in experiment [4], more than 10000 nM. In experiment [5], the EC50 worked out at 6200 nM.

Consider `Cn1cncc1-c1ccc2cnc(NC(=O)[C@H]3CCCO3)cc2c1` [Compound 537, (R)—N-(6-(1-Methyl-1H-imidazol-5-yl)isoquinolin-3-yl)tetrahydrofuran-2-carboxamide], for which the EC50 in the experiment with IL-6 was found to be 1240 nM; at recombinant GSK3β kinase, 95 nM; in experiment [1] it was 8300 nM; in experiment [2] it was 8.9 nM; in experiment [3] it was 4800 nM; in experiment [4], 599 nM. Also, in experiment [5], the EC50 came to 451 nM.
